Assay results from patent US8912121B2, “Herbicidal compositions comprising 4-amino-3-chloro-5-fluoro-6-(4-chloro-2-fluoro-3-methoxyphenyl)pyridine-2-carboxylic acid or a derivative thereof and certain PS II inhibitors” (Dow Agrosciences LLC, priority 2012, dated 2014).

Tested on: LEFCH (Leptochloa chinensis, Chinese sprangletop)
Assay: In-water applied mixtures, transplanted paddy rice, greenhouse
Format: in vivo, Leptochloa chinensis (L.) Nees
Experimental: Weed seeds or nutlets of the desired test plant species were planted in puddled soil (mud) prepared by mixing a shredded, non-sterilized mineral soil (50.5 percent silt, 25.5 percent clay, and 24 percent sand, with a pH of about 7.6 and an organic matter content of about 2.9 percent) and water at a 1:1 volumetric ratio. The prepared mud was dispensed in 365 mL aliquots into 16-ounce (oz.) non-perforated plastic pots with a surface area of 86.59 square centimeters (cm^2) leaving a headspace of 3 centimeters (cm) in each pot Mud was allowed to dry overnight prior to planting or transplanting. Rice seeds were planted in Sun Gro MetroMix® 306 planting mixture, which typically has a pH of 6.0 to 6.8 and an organic matter content of about 30 percent, in plastic plug trays. Seedlings at the second or third leaf stage of growth were transplanted into 840 mL of mud contained in 32-oz. non-perforated plastic pots with a surface area of 86.59 cm^2 4 days prior to herbicide application. The paddy was created by filling the headspace of the pots with 2.5 to 3 cm of water. When required to ensure good germination and healthy plants, a fungicide treatment and/or other chemical or physical treatment was applied. The plants were grown for 4-22 days in a greenhouse with an approximate 14 h photoperiod which was maintained at about 29° C during the day and 26° C. during the night. Nutrients were added as Osmocote® (19:6:12, N:P:K+ minor nutrients) at 2 g per 16-oz. pot and 4 g per 32-oz. pot. Water was added on a regular basis to maintain the paddy flood, and supplemental lighting was provided with overhead metal halide 1000-Watt lamps as necessary. The plants were employed for testing when they reached the first through fourth true leaf stage.
Treatments consisted of the acid or esters of 4-amino-3-chloro-5-fluoro-6-(4-chloro-2-fluoro-3-methoxy-phenyl)pyridine-2-carboxylic acid (compound A) each formulated as an SC (suspension concentrate) and various herbicidal components alone and in combination. Forms of compound A were applied on an acid equivalent basis.
Other herbicidal components were applied on an active ingredient basis and included photosystem II (PSII)-inhibits propanil formulated as […] bentazon-sodium formulated as Basagran®, and simetryne (technical grade material).
Treatment requirements for each compound or herbicidal component were calculated based upon the rates being tested, the concentration of active ingredient or acid equivalent in the formulation, an application volume of 2 mL per component per pot, and an application area of 86.59 cm^2 per pot.
For formulated compounds, a measured amount was placed in an individual 100 or 200 mL glass vial and was dissolved in a volume of 1.25% (v/v) Agri-Dex® crop oil concentrate to obtain application solutions.
For technical grade compounds, a weighed amount was placed in an individual 100 to 200 mL glass vial and was dissolved in a volume of acetone to obtain concentrated stock solutions. […] The concentrated stock solutions obtained were diluted with an equivalent volume of an aqueous mixture containing 2.5% (v/v) crop oil concentrate so that the final application solutions contained 1.25% (v/v) crop oil concentrate.
Applications were made by injecting with a pipetter appropriate amounts of the application solutions, individually and sequentially, into the aqueous layer of the paddy. Control plants were treated in the same manner with the solvent blank. Applications were made so that all treated plant material received the same concentrations of acetone and crop oil concentrate.
The treated plants and control plants were placed in a greenhouse as described above and water was added as needed to maintain a paddy flood. After approximately 3 weeks the condition of the test plants as compared with that of the untreated plants was determined visually and scored on a scale of 0 to 100 percent where 0 corresponds to no injury or growth inhibition and 100 corresponds to complete kill. […]

| SMILES | Visual Weed Control (%) Obs (8.75 g ae/ha, 21 DAA) [%] | Visual Weed Control (%) Obs (17.5 g ae/ha, 21 DAA) [%] | Visual Weed Control (%) Obs (42.4 g ae/ha, 20 DAA) [%] | Visual Weed Control (%) Obs (84.8 g ae/ha, 20 DAA) [%] | Visual Weed Control (%) Obs (35 g ae/ha, 21 DAA) [%] | Visual Weed Control (%) Obs (70 g ae/ha, 20 DAA) [%] |
| --- | --- | --- | --- | --- | --- | --- |
| COc1c(Cl)ccc(-c2nc(C(=O)O)c(Cl)c(N)c2F)c1F [Compound A Acid, 4-amino-3-chloro-6-(4-chloro-2-fluoro-3-methoxyphenyl)-5-fluoropyridine-2-carboxylic acid] | 0 | 0 | 15 | 55 |  |  |
| COc1c(Cl)ccc(-c2nc(C(=O)OCc3ccccc3)c(Cl)c(N)c2F)c1F [Compound A Benzyl Ester, benzyl ester of 4-amino-3-chloro-5-fluoro-6-(4-chloro-2-fluoro-3-methoxy-phenyl)pyridine-2-carboxylic acid] | 20 | 30 |  |  | 55 | 80 |
